We go through one compound from patent US20230146395A1, “Substituted Pyrimidines and Uses Thereof” (Verge Analytics, Inc., priority 2020, published 2023).

Counter-ions that a name gives are not always drawn.

Test [1] relates to HEK 293T transfected with plasmids containing TDP-43 Q331K mutation. Kind of test: HEK/TDP Survival assay (Cell-Titer-Glo, 48 hrs, maximal effect of rescue). The following applies: Homo sapiens, HEK 293T with TDP-43 Q331K, (n) in brackets. The format is cell-based. The procedure:
HEK/TDP Survival assay: Immortalized human embryonic kidney 293T (HEK 293T) were transfected with plasmids containing TDP-43 Q331K mutation, resulting in an increase in cell death that is biologically relevant to ALS patients. Cell death is measured as reductions in the amount of ATP, an indicator of metabolically active cells, that is quantified by a luminescence Cell-Titer-Glo® (CTG) reagent. Compounds are evaluated in this model for changes in CTG compared to a no treatment group. Increased signal indicates improved survival (rescue) and decreased signal indicates decreased survival.
Cell rescue was measured in a 96-well format with eight different concentrations of the test compound over 48 hours (hrs) with 6 replicates. The Promega Cell-Titer-Glo® Luminescent Cell Viability Assay was used to quantify ATP, an indicator of metabolically active cells (see protocol: https://www.promega.com/-/media/files/resources/protocols/technical-manuals/101/celltiterglo-2-0-assay-protocol.pdf?la=en). The luminescence signal was detected using the PerkinElmer EnVision or Molecular Devices SpectraMax.
The effect of a compound at a given dose on cell viability was determined using a three step procedure. First, Hedge's g for the Cell Titer-Glo luminescence values using six untreated wells on every plate as a control was calculated. […] Finally, values from all compound-dose pairs were corrected for multiple hypothesis testing using the Empirical Bayes framework of Stephens, M. (False discovery rates: a new deal, Biostatistics, 18 [2], 2017, 275-294) yielding credible intervals for the measured effect and associated s values.
Briefly, this method computes a local false sign rate for each experiment. Analogous to the local false discovery rate of Efron, B. (Size, power and false discovery rates, Ann. Statist. 35 [4], 2007, 1351-1377) this value measures the confidence in the sign of each effect (rather than confidence in each effect being non-zero). The s values reported in the previous figures are the expected fraction of errors if estimating the sign of all effects with greater absolute local false sign rate, defined in analogy to the q value of Storey, JD (The positive false discovery rate: a Bayesian interpretation and the q-value, Ann. Statist. 31 [6] 2003, 2013-2035).
Drugs that yielded signed log s values greater than 3 were considered hits. This threshold was determined by a separate calibration experiment in which Cell Titer-Glo® was measured in blank plates consisting of untreated cells to assess the noise inherent in the assay. Data are presented as the maximal effect of rescue obtained from the dose-response curve.

The target in another test is T1, PI3Kδ (Homo sapiens, UniProt O00329).
T1 construct: Full-length N-terminal; GST (N); host or cells: SF9 cells (baculovirus)
The experiment in a line: Inhibition of PI3K isoforms: PI3Kδ (microfluidic electrophoresis kinase assay, PIP2/PS substrate). The following applies: p110δ/p85α, ATP 90 μM; read-out: PI3Kd IC50. The class given is biochemical. How it is done:
The kinase substrate was prepared by mixing and sonicating fluorescently-labeled phosphatidylinositol 4,5-phosphate (PIP2) with phospho-L-[…]:20 ratio in 50 mM HEPES buffer pH7.5. The kinase reactions were assembled in 384-well plates (Greiner) in a total volume of […] as follows. The kinase proteins were pre-diluted in an assay buffer comprising 50 mM HEPES, pH 7.5, 0.012% CHAPS, 1 mM DTT, 10 mM Na3VaO4, 10 mM 3-GP, 3 mM MgCl2, and 40 mM NaCl2, and dispensed into a 384-well plate (10 μL per well). Test compounds were serially pre-diluted in DMSO and added to the protein samples by acoustic dispensing (Labcyte Echo). The concentration of DMSO was equalized to 1% in all samples. All test compounds were tested at 12 concentrations. The control samples (0%-inhibition in the absence of inhibitor, DMSO only) and 100%-inhibition (in the absence of enzyme) were assembled in replicates of four and were used to calculate %-inhibition in the presence of test compounds. The reactions were initiated by addition of 10 μL of the PIP2/PS substrate supplemented with ATP. The final concentration of enzymes was 0.5 nM (PI3Kα), 1 nM (PI3Kβ), 10 nM (PI3Kγ), and 0.25 nM (PI3Kδ). The final concentration of ATP was 90 μM (PI3Kα), 60 μM (PI3Kβ), 100 μM (PI3Kγ), and 90 μM (PI3Kδ). The final concentration of PIP2/PS substrate was 1 μM (PIP2). The kinase reactions were allowed to proceed for 3 h at room temperature. Following incubation, the reactions were quenched by addition of 50 μL of termination buffer (100 mM HEPES, pH 7.5, 0.01% Triton X-100, 20 mM EDTA). Terminated plates were analyzed on a microfluidic electrophoresis instrument (Caliper LabChip® 3000, Caliper Life Sciences/Perkin Elmer). The change in the relative fluorescence intensity of the PI(4,5)P substrate and PI(3,4,5)P product peaks was measured. The activity in each test sample was determined as the product to sum ratio (PSR): P/(S+P), where P is the peak height of the product, and S is the peak height of the substrate. Percent inhibition (Pinh) was determined using the following equation: Pinh=(PSR0% inh-PSRcompound)/(PSR0% inh-PSR100% inh)*100 in which PSRcompound is the product/sum ratio in the presence of compound, PSR0% inh is the product/sum ratio in the absence of compound, and the PSR100% inh is the product/sum ratio in the absence of the enzyme. […] (Pinh versus compound concentration) were fitted by a four-parameter sigmoid dose-response model using XLfit software (IDBS).

T1 sequence (O00329 whole entry): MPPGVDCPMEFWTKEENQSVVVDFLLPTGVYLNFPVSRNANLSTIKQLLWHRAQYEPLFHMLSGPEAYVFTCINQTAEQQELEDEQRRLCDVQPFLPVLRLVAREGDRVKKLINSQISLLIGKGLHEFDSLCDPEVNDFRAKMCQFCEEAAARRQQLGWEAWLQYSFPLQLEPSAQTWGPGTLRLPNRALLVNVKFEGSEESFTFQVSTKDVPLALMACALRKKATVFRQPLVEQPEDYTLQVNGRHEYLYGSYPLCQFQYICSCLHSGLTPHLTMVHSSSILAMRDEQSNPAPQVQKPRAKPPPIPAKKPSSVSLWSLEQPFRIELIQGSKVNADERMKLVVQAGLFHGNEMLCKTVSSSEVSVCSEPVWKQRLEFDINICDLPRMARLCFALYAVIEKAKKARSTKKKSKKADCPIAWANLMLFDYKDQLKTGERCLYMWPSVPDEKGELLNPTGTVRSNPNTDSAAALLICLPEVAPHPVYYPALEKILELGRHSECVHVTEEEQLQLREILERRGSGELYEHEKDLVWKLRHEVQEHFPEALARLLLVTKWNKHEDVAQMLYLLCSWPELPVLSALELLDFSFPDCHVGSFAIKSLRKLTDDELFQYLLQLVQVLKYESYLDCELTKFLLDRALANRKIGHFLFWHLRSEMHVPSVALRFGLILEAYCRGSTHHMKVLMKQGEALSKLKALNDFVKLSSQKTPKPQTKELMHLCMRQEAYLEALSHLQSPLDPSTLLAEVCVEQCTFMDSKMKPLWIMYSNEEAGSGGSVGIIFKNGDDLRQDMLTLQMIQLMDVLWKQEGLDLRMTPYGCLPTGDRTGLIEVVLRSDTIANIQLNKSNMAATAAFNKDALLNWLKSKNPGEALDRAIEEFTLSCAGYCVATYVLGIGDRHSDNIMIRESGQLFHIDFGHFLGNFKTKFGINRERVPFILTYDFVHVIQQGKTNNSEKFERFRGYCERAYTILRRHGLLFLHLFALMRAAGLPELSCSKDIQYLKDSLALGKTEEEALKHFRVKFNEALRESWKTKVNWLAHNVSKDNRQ
T1 sequence (P27986 whole entry partner): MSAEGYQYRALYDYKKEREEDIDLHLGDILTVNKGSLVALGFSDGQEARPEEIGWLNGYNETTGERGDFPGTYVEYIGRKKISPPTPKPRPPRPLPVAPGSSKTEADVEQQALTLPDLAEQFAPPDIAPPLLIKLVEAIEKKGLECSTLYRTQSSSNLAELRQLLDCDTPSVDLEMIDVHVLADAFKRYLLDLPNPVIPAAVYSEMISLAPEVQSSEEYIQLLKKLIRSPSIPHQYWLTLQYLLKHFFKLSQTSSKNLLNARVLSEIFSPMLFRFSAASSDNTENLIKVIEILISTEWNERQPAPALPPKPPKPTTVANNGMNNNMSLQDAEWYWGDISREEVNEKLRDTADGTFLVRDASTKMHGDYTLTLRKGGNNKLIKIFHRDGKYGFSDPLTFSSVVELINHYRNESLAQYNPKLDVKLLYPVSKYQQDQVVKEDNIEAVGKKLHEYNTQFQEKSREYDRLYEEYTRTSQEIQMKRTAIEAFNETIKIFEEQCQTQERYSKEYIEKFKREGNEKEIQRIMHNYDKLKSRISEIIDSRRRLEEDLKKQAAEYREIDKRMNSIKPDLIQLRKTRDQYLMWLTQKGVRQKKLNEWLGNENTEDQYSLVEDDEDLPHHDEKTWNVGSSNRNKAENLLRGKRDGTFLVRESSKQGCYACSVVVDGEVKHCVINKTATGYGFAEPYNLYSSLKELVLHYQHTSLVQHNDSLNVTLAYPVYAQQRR

As to `c1ccc(-c2cc(Nc3nc(N4CCOCC4)c4oc(-c5ccncc5)cc4n3)[nH]n2)cc1` [Compound 1, 4-morpholino-N-(3-phenyl-1H-pyrazol-5-yl)-6-(pyridin-4-yl)furo[3,2-d]pyrimidin-2-amine hydrochloride], the midpoint of the response in test [1], the EC50, lay at 14 nM. Further, the IC50 at PI3Kδ turned out to be 2710 nM.

As usually defined, the EC50 is the midpoint of the concentration-response curve. As a reminder, the IC50 is the concentration needed to halve the response being measured.
